# Source: patent publication US10689398B2, “OXA-Diazaspiro compounds having activity against pain” (ESTEVE PHARMACEUTICALS, S.A., priority 2015, dated 2020)
# Target: human σ1 receptor (Homo sapiens (Human), UniProt Q99720)
# Test: Human σ1 receptor radioligand assay
# Format: binding
# Settings: transfected HEK-293 membranes, [3H](+)-pentazocine radioligand
# Method: Human σ1 Receptor Radioligand Assay
# To investigate binding properties of test compounds to human σ1 receptor, transfected HEK-293 membranes and [^3H](+)-pentazocine (Perkin Elmer, NET-1056), as the radioligand, were used. The assay was carried out with 7 μg of membrane suspension, 5 nM of [^3H](+)-pentazocine in either absence or presence of either buffer or 10 μM Haloperidol for total and non-specific binding, respectively. Binding buffer contained Tris-HCl 50 mM at pH 8. Plates were incubated at 37° C. for 120 minutes. After the incubation period, the reaction mix was then transferred to MultiScreen HTS, FC plates (Millipore), filtered and plates were washed 3 times with ice-cold 10 mM Tris-HCL (pH7.4). Filters were dried and counted at approximately 40% efficiency in a MicroBeta scintillation counter (Perkin-Elmer) using EcoScint liquid scintillation cocktail
# Chain of human σ1 receptor (Q99720 whole entry): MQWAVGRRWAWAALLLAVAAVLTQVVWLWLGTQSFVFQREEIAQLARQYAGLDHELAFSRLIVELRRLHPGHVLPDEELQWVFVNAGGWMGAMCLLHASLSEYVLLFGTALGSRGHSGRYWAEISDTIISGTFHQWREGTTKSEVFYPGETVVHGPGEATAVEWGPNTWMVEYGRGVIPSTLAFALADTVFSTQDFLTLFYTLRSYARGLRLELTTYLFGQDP
row,Compound,Ki
1,"CN1CC2(CCCN(Cc3ccc(F)cc3)CC2)OC2(CC2)C1=O (centres unmarked) [Example 72, 8-(4-fluorobenzyl)-13-methyl-4-oxa-8,13-diazadispiro[2.1.6.3]tetradecan-14-one]",≥ 500 nM
2,"O=C1N(Cc2ccccc2)CC2(CN(CCc3ccccc3)C2)OC12CC2 [Example 33, 10-benzyl-7-phenethyl-4-oxa-7,10-diazadispiro[2.1.3.3]undecan-11-one]",< 100 nM
